Experiments:
rat hepatocytes [1] = assay: EMS-induced cytotoxicity (LDH leakage/cell death) in rat hepatocyte suspensions; conditions: Rattus norvegicus, Hepatocyte, 5 h, read-out: Percent Cytoprotection, 25 μM, 50 mM EMS, 5 h
male Sprague-Dawley rats = assay: CCl4 induced lethality in rats; assay type: in vivo, rat
rat hepatocytes [2] = assay: ATP content of rat hepatocyte suspensions; assay type: cell-based; conditions: 25 μM
Excerpt: It is well known that the succinate molecule is utilized by the cell to produce ATP energy. In the tricarboxylic acid cycle, succinate is oxidized by succinate dehydrogenase to produce ATP. Oxidation occurs in the mitochondria and the mitochondria can utilize both succinate formed in the mitochondria or succinate transported to the mitochondria. Increasing ATP production may enhance cellular repair processes as well as normal metabolic processes. For example, the cell's ability to remove free intracellular Ca^2+ during a toxic insult is related to ATP production. Succinate administration stimulates gluconeogenesis to form glucose 6-phosphate which is used for producing energy anaerobically (ATP formation through glycolysis) and for producing reducing equivalents (NADPH formation through the hexose monophosphate shunt needed for lipid and nucleotide biosynthesis and other biosynthetic reductions and enzymatic reactions, e.g., glutathione reductase). An in vitro experiment was conducted to determine the relationship between the release of succinate from alpha-TS and the cellular ATP level. The experiment was performed by incubating a tocopherol analog in a rat hepatocyte suspension and measuring the ATP level at the beginning and end of the test.
Rat hepatocyte suspensions were subjected to 50 mM EMS and the percentage of cell death, the percentage of intracellular K^+ (a metabolic parameter as discussed above), the depletion of ATP and the effect on lipid peroxidation were monitored.

L1210 leukemia cells = conditions: mouse, in vivo
[3] = tested on: gluconeogenesis or ATP production; conditions: cited from earlier work
[4] = tested on: isolated rat liver mitochondria; conditions: 6 mM succinate; cited from earlier work
rat = conditions: in vivo, ip, 100 mg/kg
Description: The duration of pentobarbitone-induced sleeping time is directly dependent on the metabolism of pentobarbitone in the liver.
^a Rats are pretreated, with the compounds listed, 20 hours prior to

| Sleeping Time (rat) | SMILES | inhibition at 25 µM (rat hepatocytes [1]) | Survival after CCl4 treatment (male Sprague-Dawley rats; 100 mg/kg ip 24 h prior, […] CCl4 oral) | Days Survived After CCl4 Treatment (male Sprague-Dawley rats; 100 mg/kg, single dose 24 h prior, CCl4 […]) | cytoprotection (Table 7, in words) (male Sprague-Dawley rats; rat, in vivo) | Rate of ATP Depletion (rat hepatocytes [2]) | Cellular ATP (rat hepatocytes [2]; 0 Hr) | Cellular ATP (rat hepatocytes [2]; 6 Hr) | Survival time (footnote) (L1210 leukemia cells) | concentration required to stimulate gluconeogenesis or ATP production [3] | increase of Ca2+ capacity and Ca2+ retention of mitochondria [4] |
| --- | --- | --- | --- | --- | --- | --- | --- | --- | --- | --- | --- |
| – | O=C(O)CCC(=O)O [Succinic Acid, reference compound] | 0% | No | 2 days | not cytoprotective | 1.8 ± 0.2 nmoles/10^6 cell/hr | 15.7 ± 1.3 nmoles/10^6 cells | 4.9 ± 0.6 nmoles/10^6 cells | identical for succinate and vehicle treated | Millimolar concentrations | five to seven |
| 900 ± 120 min | CC(C)(C(=O)c1cccnc1)c1cccnc1 [Metyrapone] | – | – | – | – | – | – | – | – | – | – |

Source: US5336485A, “Method for protecting animals against tacrine induced cytotoxic injury using sterol compounds” (priority 1993, dated 1994)
